Results published in patent publication US20260285849A1, “METHYLOPHIOPOGONONE A DERIVATIVE, AND PREPARATION AND USE THEREOF” (INSTITUTE OF MATERIA MEDICA, CHINESE ACADEMY OF MEDICAL …, priority 2022, published 2026).

What was measured:
[1] = tested on: mice with isoproterenol (ISO)-induced ischemic heart disease; experiment: ISO-induced ischemic heart disease mouse model: serum ANP and NT-proBNP (ELISA); type: in vivo; conditions: ISO 40 mg/kg s.c. 7 times
Description: (§1) Male C57BL/6 mice were allowed to acclimate to the environment and then randomly divided into 9 groups, namely the blank control group, the ISO model group, the ISO+diltiazem 20 mg/kg positive control drug group, the ISO+Formula I (0.1, 0.5, 2 mg/kg) groups, and the ISO+Formula II (0.1, 0.5, 2 mg/kg) groups. Mice in the drug administration groups were intragastrically administered the corresponding doses of Formula I and Formula II compounds once a day at the same time. Mice in the positive drug diltiazem group were intragastrically administered the corresponding dose of diltiazem once a day. Mice in the blank control group and the model group were given the same amount of solvent (0.5% CMC-Na). The administration volume was 10 mL/kg, and the administration was continuous for 11 days.
(§2) From the 4th to the 10th day of drug administration, ISO modeling was carried out. The blank control group was subcutaneously injected with normal saline, and mice in the other groups were subcutaneously injected with ISO at a dose of 40 mg/kg (modeling was performed 2 hours after drug administration), for a total of 7 times.
Detection of Myocardial Hypertrophy/Heart Failure Biomarkers: After the drug administration ended, the animals' eyes were enucleated to collect blood. The blood was left to stand at room temperature for 2 hours, and then centrifuged at 3500 rpm for 20 minutes to separate the serum. The contents of serum ANP and NT-proBNP were determined according to the instructions of the ELISA kit.

[2] = tested on: mice with isoproterenol (ISO)-induced ischemic heart disease; experiment: ISO-induced ischemic heart disease mouse model: myocardial tissue pathology (H&E); type: in vivo; conditions: for The number of animals with lesion degree + / The number of animals with lesion degree ++ / The number of animals with lesion degree +++ / The number of animals with lesion degree ++++ / The number of animals with lesion degree +++++ / The number of animals with lesion degree − / average score of myocardial tissue lesion degree: H&E; for pathological damage of myocardial tissue (H&E staining): three doses (0.1, 0.5, 2 mg/kg) by gavage
Description: as §1, §2
Pathological detection of myocardial tissue: After the experiment ended, the heart was washed with ice-cold physiological saline and dried with absorbent paper. It was then cut transversely into two halves. One-third of the part closer to the apex of the heart was fixed in a 4% paraformaldehyde solution. After dehydration with gradient ethanol and clearing with xylene, it was immersed in melted paraffin three times for embedding, 30 minutes each time. After embedding, continuous sections (about 4 μm thick) were made. Routine hematoxylin and eosin (H.E.) staining was performed. The pathological state of the myocardial tissue was observed under an optical microscope, photographed, and analyzed.
• −: No abnormalities were observed. • +: No myocardial tissue damage was seen. There was local hypertrophy of cardiomyocytes in the interventricular septum and papillary muscles, local edema and degeneration of cardiomyocytes, widening of the local muscle space in the lesion area, and mild non-specific inflammation in the interstitium. • ++: No obvious myocardial tissue damage (cardiomyocyte necrosis) was observed. There was local hypertrophy of cardiomyocytes in the interventricular septum and papillary muscles, local edema and degeneration of cardiomyocytes. Myofibril dissolution (disappearance of cross-striations) could be seen in local areas. The lesions were relatively limited and distributed in small foci. Non-specific inflammation was visible in the interstitium, and local fibrous tissue hyperplasia in the interstitium was noted. • +++: There was obvious hypertrophy of cardiomyocytes in the interventricular septum and papillary muscles, local edema and degeneration of cardiomyocytes. […] The lesion was limited to the subendocardium of the local interventricular septum (or papillary muscle), with a limited and small affected area. Non-specific inflammation was visible in the interstitium of the lesion area, and local fibrous tissue hyperplasia in the interstitium was noted. • ++++: The hypertrophy of cardiomyocytes in the interventricular septum and papillary muscles is remarkable. Locally, there is edema and degeneration of cardiomyocytes; there is obvious damage (necrosis of cardiomyocytes) in the myocardial tissue of the local interventricular septum and papillary muscles. The lesions are distributed in foci (or small patches), and the affected area is relatively large. […] Locally, there is edema and degeneration of cardiomyocytes; the damage (necrosis of cardiomyocytes) of the myocardial tissue of the local interventricular septum and papillary muscles is severe. The damage (necrosis) lesions are distributed in patches and are connected to each other. Transmural myocardial tissue damage of the interventricular septum and papillary muscles can be seen locally.

H9C2 cardiomyocytes = experiment: cells; conditions: Rattus norvegicus, H9c2, read-out: Cell viability
Description: H9C2 cardiomyocytes in the logarithmic growth phase were seeded into 96-well plates at a density of 7×10^4 cells/mL, with 100 μL per well.
After 24 hours of culture, the culture medium of the H/R and drug-treated groups was replaced with serum-free glucose-free DMEM medium (100 μL per well). The cells were then placed in an anaerobic incubator and cultured under hypoxic conditions in a 37° C. cell culture incubator. After 6 hours, the supernatant of the H/R and drug-treated groups was removed and replaced with high-glucose medium containing 10% fetal bovine serum (100 μL per well). Each drug-treated group received the corresponding concentration of the drug, while the H/R model group and the blank control group received an equal volume of DMSO.
After removing the supernatant, 100 μL of CCK solution (the volume of CCK accounted for 10% of the DMEM culture medium volume) was added to each well. The cells were cultured in the cell culture incubator for 1 hour, and the absorbance was measured at 450 nm using a microplate reader to calculate the cell viability. Cell viability was calculated as follows: Cell viability (%)=(Experimental well-Blank well)/(Control well-Blank well)×100%.

[3] = tested on: mice with isoproterenol (ISO)-induced ischemic heart disease; experiment: ISO-induced ischemic heart disease mouse model: Ca2+ in myocardial tissue; type: in vivo
Description: as §1, §2
Calcium ion detection in myocardial tissue: After the experiment ended, some myocardial tissue was taken to prepare a 10% myocardial tissue homogenate with ultrapure water. The homogenate was centrifuged at 1200 rpm for 20 minutes at 4° C. to separate the supernatant of the myocardial tissue homogenate. The calcium ion content was determined according to the kit instructions; protein quantification was performed using the BCA protein assay method.

Rat H9C2 cardiomyocytes = experiment: cells; conditions: H9c2, 24 h, read-out: Cell survival rate
Description: Rat H9C2 cardiomyocytes in the logarithmic growth phase were seeded into 96-well plates at a density of 7×10^4 cells/mL, with 100 μL per well. […] After 24 hours of culture, the drug groups were treated with 800 μM ISO and the corresponding concentrations of drugs. The ISO model group received 800 μM ISO and an equal volume of DMSO, and the blank control group received an equal volume of DMSO. The cells were then cultured for another 24 hours. After removing the supernatant, 100 μL MTT solution (0.5 mg/mL) was added to each well and incubated in the cell culture incubator for 4 hours. After removing the supernatant, 150 μL DMSO was added to each well, mixed by shaking for 10 minutes, and the absorbance was measured at 570 nm using a microplate reader to calculate cell viability. Cell viability (%)=[(As−Ab)/(Ac−Ab)]×100%. As: Experimental well (medium with cells, MTT, ISO); Ac: Control well (medium with cells, MTT, without ISO); Ab: Blank well (medium without cells, MTT, without ISO).

[4] = 0.1 mg/kg intragastric once a day 11 days
[5] = 0.5 mg/kg intragastric once a day 11 days
[6] = 2 mg/kg intragastric once a day 11 days

O=c1c(Cc2ccc3c(c2)OCO3)coc2cc(O)cc(O)c12 [Formula I]
ANP [1, 4]: 301.02 ± 58.98 pg/mL
NT-proBNP [1, 4]: 39.35 ± 2.83 pg/mL
ANP [1, 5]: 295.85 ± 57.72 pg/mL
NT-proBNP [1, 5]: 43.52 ± 6.06 pg/mL
ANP [1, 6]: 289.01 ± 50.17 pg/mL
NT-proBNP [1, 6]: 40.47 ± 7.15 pg/mL
The number of animals with lesion degree + ([2]; 0.1 mg/kg): 0
The number of animals with lesion degree ++ ([2]; 0.1 mg/kg): 2
The number of animals with lesion degree +++ ([2]; 0.1 mg/kg): 5
The number of animals with lesion degree ++++ ([2]; 0.1 mg/kg): 2
The number of animals with lesion degree +++++ ([2]; 0.1 mg/kg): 0
The number of animals with lesion degree − ([2]; 0.1 mg/kg): 0
average score of myocardial tissue lesion degree ([2]; 0.1 mg/kg): 3.00 ± 0.71
The number of animals with lesion degree + ([2]; 0.5 mg/kg): 2
The number of animals with lesion degree ++ ([2]; 0.5 mg/kg): 4
The number of animals with lesion degree +++ ([2]; 0.5 mg/kg): 4
The number of animals with lesion degree ++++ ([2]; 0.5 mg/kg): 0
The number of animals with lesion degree +++++ ([2]; 0.5 mg/kg): 0
The number of animals with lesion degree − ([2]; 0.5 mg/kg): 0
average score of myocardial tissue lesion degree ([2]; 0.5 mg/kg): 2.20 ± 0.79
The number of animals with lesion degree + ([2]; 2 mg/kg): 6
The number of animals with lesion degree ++ ([2]; 2 mg/kg): 3
The number of animals with lesion degree +++ ([2]; 2 mg/kg): 0
The number of animals with lesion degree ++++ ([2]; 2 mg/kg): 0
The number of animals with lesion degree +++++ ([2]; 2 mg/kg): 0
The number of animals with lesion degree − ([2]; 2 mg/kg): 1
average score of myocardial tissue lesion degree ([2]; 2 mg/kg): 1.20 ± 0.63
pathological damage of myocardial tissue (H&E staining) [2]: significantly improve the pathological damage of myocardial tissue
viability at 0.1 µM (H9C2 cardiomyocytes): 60.6%
viability at 0.3 µM (H9C2 cardiomyocytes): 60.3%
viability at 1 µM (H9C2 cardiomyocytes): 55.4%
viability at 3 µM (H9C2 cardiomyocytes): 59.6%
viability at 5 µM (H9C2 cardiomyocytes): 54.4%
viability at 10 µM (H9C2 cardiomyocytes): 55.3%
Ca^2+ [3, 4]: 0.050 ± 0.008 mmol/gprot
Ca^2+ [3, 5]: 0.046 ± 0.010 mmol/gprot
Ca^2+ [3, 6]: 0.058 ± 0.009 mmol/gprot
viability at 0.1 µM (Rat H9C2 cardiomyocytes): 81.3%
viability at 0.3 µM (Rat H9C2 cardiomyocytes): 76.8%
viability at 1 µM (Rat H9C2 cardiomyocytes): 74%
viability at 3 µM (Rat H9C2 cardiomyocytes): 76.6%
viability at 5 µM (Rat H9C2 cardiomyocytes): 66.7%
viability at 10 µM (Rat H9C2 cardiomyocytes): 69.4%

Cc1c(O)cc(O)c2c(=O)c(Cc3ccc4c(c3)OCO4)coc12 [Formula II, 3-(benzo[d][1,3]dioxol-5-ylmethyl)-5,7-dihydroxy-8-methyl-4H-chromen-4-one]
ANP [1, 4]: 303.60 ± 37.76 pg/mL
NT-proBNP [1, 4]: 34.07 ± 4.10 pg/mL
ANP [1, 5]: 264.38 ± 27.96 pg/mL
NT-proBNP [1, 5]: 31.31 ± 2.24 pg/mL
ANP [1, 6]: 258.19 ± 52.28 pg/mL
NT-proBNP [1, 6]: 31.12 ± 2.33 pg/mL
The number of animals with lesion degree + ([2]; 0.1 mg/kg): 2
The number of animals with lesion degree ++ ([2]; 0.1 mg/kg): 4
The number of animals with lesion degree +++ ([2]; 0.1 mg/kg): 4
The number of animals with lesion degree ++++ ([2]; 0.1 mg/kg): 0
The number of animals with lesion degree +++++ ([2]; 0.1 mg/kg): 0
The number of animals with lesion degree − ([2]; 0.1 mg/kg): 0
average score of myocardial tissue lesion degree ([2]; 0.1 mg/kg): 2.20 ± 0.79
The number of animals with lesion degree + ([2]; 0.5 mg/kg): 3
The number of animals with lesion degree ++ ([2]; 0.5 mg/kg): 4
The number of animals with lesion degree +++ ([2]; 0.5 mg/kg): 3
The number of animals with lesion degree ++++ ([2]; 0.5 mg/kg): 0
The number of animals with lesion degree +++++ ([2]; 0.5 mg/kg): 0
The number of animals with lesion degree − ([2]; 0.5 mg/kg): 0
average score of myocardial tissue lesion degree ([2]; 0.5 mg/kg): 2.00 ± 0.82
The number of animals with lesion degree + ([2]; 2 mg/kg): 6
The number of animals with lesion degree ++ ([2]; 2 mg/kg): 1
The number of animals with lesion degree +++ ([2]; 2 mg/kg): 0
The number of animals with lesion degree ++++ ([2]; 2 mg/kg): 0
The number of animals with lesion degree +++++ ([2]; 2 mg/kg): 0
The number of animals with lesion degree − ([2]; 2 mg/kg): 4
average score of myocardial tissue lesion degree ([2]; 2 mg/kg): 0.73 ± 0.65
pathological damage of myocardial tissue (H&E staining) [2]: significantly improve the pathological damage of myocardial tissue
viability at 0.1 µM (H9C2 cardiomyocytes): 60.5%
viability at 0.3 µM (H9C2 cardiomyocytes): 58.8%
viability at 1 µM (H9C2 cardiomyocytes): 52.1%
viability at 3 µM (H9C2 cardiomyocytes): 61.5%
viability at 5 µM (H9C2 cardiomyocytes): 44.8%
viability at 10 µM (H9C2 cardiomyocytes): 47.9%
Ca^2+ [3, 4]: 0.046 ± 0.015 mmol/gprot
Ca^2+ [3, 5]: 0.054 ± 0.014 mmol/gprot
Ca^2+ [3, 6]: 0.059 ± 0.009 mmol/gprot
viability at 0.1 µM (Rat H9C2 cardiomyocytes): 79.8%
viability at 0.3 µM (Rat H9C2 cardiomyocytes): 79.8%
viability at 1 µM (Rat H9C2 cardiomyocytes): 74.8%
viability at 3 µM (Rat H9C2 cardiomyocytes): 79.6%
viability at 5 µM (Rat H9C2 cardiomyocytes): 64.9%
viability at 10 µM (Rat H9C2 cardiomyocytes): 66.7%
